Laboratory results: US12377076B2, “Compounds for treating lymphoma or a T-cell malignant disease” (Purdue Pharma L.P., priority 2018, dated 2025)
Where “and” joins values, the source holds several entries; their conditions need not be identical. Equal values may be shown once. Read-outs that look alike come from different tables or passages of the source.

Columns and labels:
patients with lymphoma = assay: Tumour assessment: response to treatment, patients with lymphoma; assay type: in vivo, human
Source text: (§1) Response to treatment included evaluation of overall response rate (patients with a CR plus patients with a PR), clinical benefit (CB) rate (patients with CR plus patients with PR plus patients with stable disease (SD)), progression free survival, and overall survival according to the relevant response criteria.

[1] = PK assessment: plasma tinostamustine and metabolites M2 and M8, non-compartmental analysis and population PK model; assay type: in vivo, human; settings: for AUC / Cmax / Tmax: day one, Mean (SD)
Method: Plasma samples were collected to determine the concentrations of tinostamustine and its metabolites (labelled M2 and M8) by a method fully validated according to the relevant guidelines. The PK profiles of tinostamustine in plasma were assessed in each patient in the escalation stage of the study, in cycle 1 only.
Patients of all cohorts and over all dose levels were sampled according to the following schedule: 0.5 hours prior to dose administration, and at 15, 30 and 45 minutes and 1, 1.25, 1.50, 2, 3, 8, 24, 48 and 72 hours from the start of tinostamustine infusion. Plasma samples were collected according to the Laboratory Manual for the determination of tinostamustine and metabolites M2 and M8 concentrations using a method fully validated according to the relevant guidelines.
A compartmental population PK analysis of tinostamustine was conducted to characterize its concentration-time profiles and its dependency on patient factors. For the analysis, the 24 hours plasma concentrations of tinostamustine at day one from 36 patients was used from whom the data was available. The concentration-time profiles were best described with a two-compartmental model with first order clearance from the central compartment.

lymphocytes = assay: PK/PD safety modelling: dose-nadir relationship of blood cell counts, lymphocytes; assay type: in vivo, human; settings: (% CV) in table
Source text: The obtained exposure parameters (Cmax and AUC) and PK profiles from individual patients and the respective haematological laboratory data were collected over the treatment duration and analysed regarding the relationship to peripheral blood cell counts (lymphocytes, neutrophils, platelets).
The nadir was defined as the lowest blood cell count observed after the first administration. The nadir was extracted irrespective of the treatment duration, thus, the analysis data set included patients who received only one dose and patients who received multiple treatment cycles with tinostamustine. The baseline blood cell count, which was the count before the first administration, was included in the analysis as the cell count at dose, Cmax or AUC equal to 0. Thus, it was assumed that the baseline blood cell count was the effect level without treatment with tinostamustine. With an exploratory analysis all observations each predictor-nadir relationship was fitted with a least-squares method in R. The dose-nadir relationship was further investigated with a non-linear mixed effects approach. The advantage of the non-linear mixed effects approach compared to the exploratory analysis was that different external and patient factors could be investigated at the same time and the between patient variability can be described. […]

patients with HL = assay: Tumour assessment: response to treatment, patients with HL; assay type: in vivo, human
Source text: as §1

lymphoma = settings: in vitro and in vivo models; cited from earlier work
[2] = human, plasma, intravenous, 20 mg/m^2, 20 mg/m^2, infusion 60 minutes
[3] = human, plasma, intravenous, 40 mg/m^2, 40 mg/m^2, infusion 60 minutes
[4] = human, plasma, intravenous, 60 mg/m^2, 60 mg/m^2, infusion 30 minutes
[5] = human, plasma, intravenous, 60 mg/m^2, 60 mg/m^2, infusion 60 minutes
[6] = human, plasma, intravenous, 80 mg/m^2, 80 mg/m^2, infusion 45 minutes
[7] = human, plasma, intravenous, 80 mg/m^2, 80 mg/m^2, infusion 60 minutes
[8] = human, plasma, intravenous, 100 mg/m^2, 100 mg/m^2, infusion 60 minutes
[9] = human, plasma, intravenous, 120 mg/m^2, 120 mg/m^2, infusion 60 minutes

Cn1c(CCCCCCC(=O)NO)nc2cc(N(CCCl)CCCl)ccc21 [tinostamustine]
CBR (patients with lymphoma; 27 patients with lymphoma): 62%
ORR (patients with lymphoma; 27 patients with lymphoma): 40%
best response CR (patients with lymphoma; 27 patients with lymphoma): 11%
best response PR (patients with lymphoma; 27 patients with lymphoma): 30%
best response SD (patients with lymphoma; 27 patients with lymphoma): 22%
best response of PD (patients with lymphoma; 27 patients with lymphoma): 37%
ORR and CBR (patients with lymphoma; LYM60 mg/m^2/30 min cohort): 100%
dose linearity of PK ([1]; dose range 20-120 mg/m^2 over 60 minutes infusion time): linear
dose linearity of PK ([1]; dose range 20 to 120 mg/m^2, infusion times of 30 to 60 minutes): dose-linear
AUC [1, 2]: 193 ng·h/mL
Cmax [1, 2]: 241 ng/mL
Tmax [1, 2]: 48 min
AUC [1, 3]: 932 ng·h/mL
Cmax [1, 3]: 1160 ng/mL
Tmax [1, 3]: 24 min
AUC [1, 4]: 627 ng·h/mL
Cmax [1, 4]: 1720 ng/mL
Tmax [1, 4]: 18 min
AUC [1, 5]: 592 ng·h/mL
Cmax [1, 5]: 640 ng/mL
Tmax [1, 5]: 60 min
AUC [1, 6]: 794 ng·h/mL
Cmax [1, 6]: 1280 ng/mL
Tmax [1, 6]: 24 min
AUC [1, 7]: 902 ng·h/mL
Cmax [1, 7]: 1060 ng/mL
Tmax [1, 7]: 48 min
AUC [1, 8]: 1660 ng·h/mL
Cmax [1, 8]: 1960 ng/mL
Tmax [1, 8]: 42 min
AUC [1, 9]: 1640 ng·h/mL
Cmax [1, 9]: 1770 ng/mL
Tmax [1, 9]: 48 min
half-life ([1]; human, plasma, intravenous, population PK, two-compartmental model, 36 patients, read-out: B half-life (converted)): 216 min
Vd ([1]; human, plasma, intravenous, population PK, two-compartmental model, 36 patients, read-out: Central volume of distribution): 20.6 L
half-life ([1]; human, plasma, intravenous, population PK, two-compartmental model, 36 patients, read-out: α half-life): 27 min
Peripheral volume of distribution ([1]; population PK, two-compartmental model, 36 patients): 11.5 L
time to maximum concentrations ([1]; shorter infusions): around 30 minutes
EC50 (dose required to reduce the cell count by 50%) (lymphocytes): 28.3 mg/m^2 and 28.3 (40%) mg/m^2
response (patients with HL; 1 patient with refractory HL treated with 120 m/m^2 over 6 cycles): achieved a CR
patients having a response from SD to CR (patients with HL; 10 patients with HL): 70%
activity against lymphoma (lymphoma): potent activity
